Measured values published in US12714719B2, “Cannabinoids, pharmaceutical compositions comprising same and uses thereof” (TECHNION RESEARCH AND DEVELOPMENT FOUNDATION LIMITED, priority 2020, dated 2026).

Legend:
DBTRG-05MG cells = assay: Hoechst / Propidium Iodide cell death imaging; type: cell-based; settings: 24 hours; for % of cell death, effect of adding the cannabinoid to CBD: DBTRG-05MG, purified cannabinoids at content of extract 2, 4 and 8 μg/ml, compared with CBD alone
Procedure: The effects of cannabinoids on the survival of tolerant glioblastoma (GBM) cancer cells harboring a NOTCH 4 mutation were examined.
DBTRG-05MG cells were cultured in 96 well plate (1×10^5 cells/well) until confluency and treated with DMSO as control, pure cannabidiol (CBD), and extracts CAN12 and CAN26 with increasing concentrations from 1 to 4 μg/ml (FIG. 2A).
In another experiment, cells were cultured in 96 well plate (1×10^5 cells/well) until confluency and treated for 24 hours with three molecules (CBD, CBDV and CF1) as compared to the whole extract. The treatments were performed using three extract concentrations: 2, 4 and 8 μg/ml (FIG. 2B). After 24 hours, cells were stained with Hoechst and Propidium Iodide (PI) and imaged by IXM micro system (Molecular Devices) in 10× magnification. Live and dead cells were analyzed by MetaXpress® software (Molecular Devices) and presented as percentages of cell death from total cells. The purified phytocannabinoids were diluted to contain the same content as in the extract, then were provided according to the extract concentrations.

Molt-4 cells = assay: AlamarBlue (resazurin) viability assay; type: cell-based
Procedure: Dose-dependent AlamarBlue® (resazurin) viability assays were performed on Molt-4 cells treated with different concentrations of three phytocannabinoids (CBD, CBDV and CF1) at different ratios, as shown in Table 2.
In order to determine the effect of cannabinoids on the reduction of the survival rate of cancer cells, dose-dependent AlamarBlue® (resazurin) viability assays were then performed on Molt-4 cells treated with single cannabinoids or a combination of two cannabinoids at the same concentration as that of the three phytocannabinoids present in the whole extract, as shown in Table 3. Particularly, CF1 alone, or in combination with one additional cannabinoid was examined to determine its capability to induce apoptosis of cancer cells.

Compound | % of cell death (DBTRG-05MG cells; GBM DBTRG-05MG cells harboring a NOTCH 4 mutation, vs DMSO) | % of cell death, effect of adding the cannabinoid to CBD (DBTRG-05MG cells) | inducing cancer cells death (Molt-4 cells; Molt-4, CF1 alone as a single cannabinoid (1a, 0.62 ng/μl)) | potency among the three cannabinoids (CBD, CBDV, CF1) (Molt-4 cells; Molt-4, Table 3 compositions)
C=C(C)[C@@H]1CCC(C)=C[C@H]1c1c(O)cc(CCCCC)cc1O [CBD, cannabidiol] | increased | – | – | –
C=C(C)[C@@H]1CCC(C)=C[C@H]1c1c(O)cc(CCC)cc1O [CBDV, cannabidivarin] | – | improved the activity of CBD alone | – | –
CCCCCc1cc(O)c(C2C=C(C)CCC2C(C)(C)O)c(O)c1 [CF1, 1,3-benzenediol,2-[(1R,6R)-6-(1-hydroxy-1-methylethyl)-3-methyl-2cyclohexen-1-yl]-5-pentyl] | – | improved the activity of CBD alone | showed efficacy | most potent
